Reference: article PMC8968710, “Structural insights into the substrate-bound condensation domains of non-ribosomal peptide synthetase AmbB” (Scientific Reports, 2022)

Tests used:
full-length AmbB = target: T1, full-length AmbB (Pseudomonas aeruginosa, UniProt Q9I1H0); assay: […]-alanine aminoacylation/TCA precipitation radioassay; colorimetric pyrophosphate adenylation assay; type: biochemical; conditions: 5 mM ATP, 5 mM MgCl2; radioassay with labelled compound
T1 construct: full length, cleavable N-terminal SUMO tag (pET28a), NiNTA purified, E. coli host
T1 sequence (Q9I1H0 whole entry): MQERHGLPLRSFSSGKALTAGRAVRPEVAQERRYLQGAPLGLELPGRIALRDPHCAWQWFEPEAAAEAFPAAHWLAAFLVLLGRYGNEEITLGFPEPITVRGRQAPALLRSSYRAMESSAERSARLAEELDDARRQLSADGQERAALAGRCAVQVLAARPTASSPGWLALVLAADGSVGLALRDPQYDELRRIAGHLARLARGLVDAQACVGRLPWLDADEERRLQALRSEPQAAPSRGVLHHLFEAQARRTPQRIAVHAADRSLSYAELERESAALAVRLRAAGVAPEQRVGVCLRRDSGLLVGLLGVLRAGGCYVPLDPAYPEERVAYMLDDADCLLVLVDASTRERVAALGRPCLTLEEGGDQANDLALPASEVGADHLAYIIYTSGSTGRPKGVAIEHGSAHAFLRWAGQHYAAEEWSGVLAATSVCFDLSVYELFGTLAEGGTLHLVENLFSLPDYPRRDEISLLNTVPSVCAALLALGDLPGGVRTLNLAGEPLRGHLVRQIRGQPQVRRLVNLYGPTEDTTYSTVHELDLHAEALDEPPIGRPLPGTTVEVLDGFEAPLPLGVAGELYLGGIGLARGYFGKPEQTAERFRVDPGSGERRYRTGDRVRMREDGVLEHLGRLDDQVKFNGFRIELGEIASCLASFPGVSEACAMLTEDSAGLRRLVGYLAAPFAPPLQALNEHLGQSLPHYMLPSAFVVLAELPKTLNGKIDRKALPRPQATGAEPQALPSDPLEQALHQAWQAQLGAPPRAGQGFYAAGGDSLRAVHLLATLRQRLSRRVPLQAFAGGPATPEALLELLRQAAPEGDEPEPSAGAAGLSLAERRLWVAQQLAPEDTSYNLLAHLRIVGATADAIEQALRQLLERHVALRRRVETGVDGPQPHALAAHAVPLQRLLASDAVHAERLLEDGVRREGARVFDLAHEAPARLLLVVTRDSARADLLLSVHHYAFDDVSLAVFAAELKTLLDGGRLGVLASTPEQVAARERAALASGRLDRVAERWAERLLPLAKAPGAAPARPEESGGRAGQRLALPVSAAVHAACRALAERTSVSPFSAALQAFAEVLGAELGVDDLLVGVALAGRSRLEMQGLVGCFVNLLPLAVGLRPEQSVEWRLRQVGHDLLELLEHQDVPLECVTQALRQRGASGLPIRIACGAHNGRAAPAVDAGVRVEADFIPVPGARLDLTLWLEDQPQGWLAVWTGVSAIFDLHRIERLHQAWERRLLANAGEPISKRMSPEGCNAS

AmbB T–C [1] = target: T2, AmbB T–C (Pseudomonas aeruginosa, UniProt Q9I1H0); assay: X-ray crystallography, […] Å; LC-MS; type: binding; conditions: covalent; on Ser768 of T domain, L-Ala thioester near His953 of C domain; possible Ppant/Ppant-L-Ala mixture
T2 construct: T-C bidomain, residues 727-1249, GST tag cleaved (pGEX-6P-1), E. coli host, holo form made with Sfp; Ppant on Ser768
T2 sequence (Q9I1H0 727-1249): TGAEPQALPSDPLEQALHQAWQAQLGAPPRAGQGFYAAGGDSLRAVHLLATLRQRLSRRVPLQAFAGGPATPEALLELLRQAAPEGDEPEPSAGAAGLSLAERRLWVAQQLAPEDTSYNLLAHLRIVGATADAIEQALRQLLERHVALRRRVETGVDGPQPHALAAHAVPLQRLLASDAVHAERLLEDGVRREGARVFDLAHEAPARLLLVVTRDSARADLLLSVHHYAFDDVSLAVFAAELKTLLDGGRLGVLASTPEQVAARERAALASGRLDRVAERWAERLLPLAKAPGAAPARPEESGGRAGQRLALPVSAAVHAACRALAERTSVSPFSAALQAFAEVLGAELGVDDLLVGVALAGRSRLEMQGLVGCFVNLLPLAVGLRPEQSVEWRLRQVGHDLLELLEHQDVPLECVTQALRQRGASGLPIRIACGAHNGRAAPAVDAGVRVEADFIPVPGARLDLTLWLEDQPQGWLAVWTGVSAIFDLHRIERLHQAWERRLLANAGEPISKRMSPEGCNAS

AmbB T–C [2] = target: T2, AmbB T–C; assay: X-ray crystallography, […] Å; LC-MS; type: binding; conditions: covalent; on Ser768 of T domain, arm in donor channel of C domain

C[C@H](N)C(=O)O [L-Ala]
14C-alanine aminoacylation/TCA precipitation radioassay; colorimetric pyrophosph (full-length AmbB): apo full-length AmbB, which activates L-Ala (Supplementary Fig. S4a)

C[C@H](N)C(=O)SCCNC(=O)CCNC(=O)[C@H](O)C(C)(C)COP(=O)(O)O [Ppant-L-Ala]
X-ray crystallography, 2.5 Å; LC-MS (AmbB T–C [1]): chains B and D exhibit relatively well-defined electron density for Ppant-L-Ala

CC(C)(COP(=O)(O)O)[C@@H](O)C(=O)NCCC(=O)NCCS [Ppant]
X-ray crystallography, 2.2 Å; LC-MS (AmbB T–C [2]): Structure of holo AmbB T–C with Ppant (cyan stick) covalently attached to Ser768
